Our source for the mass density values is the NIST ThermoML archive (doi:10.1016/j.jct.2008.07.009).

The conditions of this data set: 101.33 kPa, Liquid, Vibrating tube method.

Structures are written as SMILES. ± gives the expanded uncertainty stated by the source.

On to `Cc1cc(C)cc(C)c1` [1,3,5-trimethylbenzene], for which the mass density (as a rule, the mass of a sample divided by its volume) reads like this: (293.15 K) 865.1 ± 6 kg/m3; (303.15 K) 856.9 ± 6 kg/m3; (313.15 K) 842.8 ± 6 kg/m3; (323.15 K) 834.7 ± 6 kg/m3; (333.15 K) 826.6 ± 6 kg/m3; (343.15 K) 818.5 ± 6 kg/m3.

As to `CC(=O)N1CCOCC1` [4-acetylmorpholine], the mass density amounted to 1113.8 ± 6.1 kg/m3 (293.15 K); 1105.9 ± 6.1 kg/m3 (303.15 K); 1097.3 ± 6.1 kg/m3 (313.15 K); 1088.7 ± 6.1 kg/m3 (323.15 K); 1080.1 ± 6.1 kg/m3 (333.15 K); 1071.5 ± 6.1 kg/m3 (343.15 K).

Turning to `c1ccccc1` [benzene], the mass density is, setting by setting: (293.15 K) 878.9 ± 6 kg/m3; (303.15 K) 868.2 ± 6 kg/m3; (313.15 K) 857.4 ± 6 kg/m3; (323.15 K) 846.5 ± 6 kg/m3; (333.15 K) 835.7 ± 6 kg/m3; (343.15 K) 824.7 ± 6 kg/m3.

In the case of `CCc1ccccc1` [ethylbenzene], the mass density (293.15 K) came to 867.2 ± 6 kg/m3; the mass density (303.15 K) was 858.3 ± 6 kg/m3; the mass density (313.15 K) is on record as 849.3 ± 6 kg/m3; the mass density (323.15 K) is given as 840.3 ± 6 kg/m3; the mass density (333.15 K) came to 831.2 ± 6 kg/m3; the mass density (343.15 K) was found to be 822.1 ± 6 kg/m3.

Take `Cc1ccccc1` [toluene]: the mass density runs as follows: (293.15 K) 866.8 ± 6 kg/m3; (303.15 K) 857.5 ± 6 kg/m3; (313.15 K) 848.8 ± 6 kg/m3; (323.15 K) 838.9 ± 6 kg/m3; (333.15 K) 829.6 ± 6 kg/m3; (343.15 K) 820.2 ± 6 kg/m3.
